Several values for one entry are separate records, joined by “and”; a condition that tells them apart may be missing. Identical values can stand only once.
What was measured:
[1] = system: caspase 3/7; test: Caspase 3/7 activity in NVCM (Caspase-Glo); format: cell-based, rat; conditions: for Csp3/7 activity: independent replicates
Procedure: (§1) Caspase activity was assessed on NVCM cells using luciferase-based kits for caspase 3/7, 8 and 9 (Caspase-Glo® 3/7, 8 and 9 assay systems; Promega) according to the manufacturer’s instructions on 384-well plates (Greiner Bio-One). Luminescence signal was measured using Tecan M200 multifunctional plate-reader. All measured groups were corrected for total protein concentration (BCA assay) and were expressed as fold change of the signal over corresponding untreated control group. Each presented data point was obtained from distinct sample. Statistical significance was determined using ratio paired t-test, two-tailed.

[2] = system: caspase 8; test: Caspase 8 activity in NVCM (Caspase-Glo); format: cell-based, rat; conditions: for Csp8 activity: independent replicates
Procedure: as §1

[3] = system: caspase 9; test: Caspase 9 activity in NVCM (Caspase-Glo); format: cell-based, rat; conditions: for Csp9 activity: independent replicates
Procedure: as §1

[4] = system: HL-60 cell line; design: method as in previously determined; conditions: ref previously determined, read-out: IC50, antiproliferative; cited from earlier work
[5] = system: rabbits; test: Chronic anthracycline cardiotoxicity model in rabbits
Procedure: Thirty-eight rabbits were used for this purpose using the following study design. Chronic cardiotoxicity was induced by DAU (3 mg/kg, i.v., once weekly for 10 weeks, n = 11), while the control group received the same volume of saline (1 ml/kg, n = 9) in the same way. […] Animal survival was monitored daily, while body weight change was recorded weekly. The experiment was scheduled to end a week after the last dosing of the compounds studied.
Cardiac damage induced by DAU was quantified by determination of cardiac troponin T in plasma before the 1st, 5th, 8th and 10th doses and at the end of the study using a high sensitivity assay (Elecsys Troponin T high sensitive STAT test, Roche Diagnostics, Switzerland, detection limit of 0.003 μg/L). The area under curve (AUC) of the plasma concentration of cardiac troponin T was determined using GraphPad Prism.
The systolic function of the LV was examined throughout the experiment without invasiveness using echocardiography (Vivid 4, probe 10.5 MHz, GE HeathCare) and invasively at the scheduled end of the experiment using LV catheterization (a Millar catheter 2.3 F, Millar Instruments, USA). In the echocardiography examination, the M-mode was used to determine the dimensions of the LV and the fractional shortening of the LV (LVFS) was calculated as an index of systolic function as described previously[46]. Similarly, from the change in LV pressures determined by catheterization of the LV, dP/dtmax was calculated as an index of systolic function as previously described[47]. Statistical significance was determined using one way ANOVA followed by the Holm–Sidak post hoc test or Kruskal–Wallis ANOVA on ranks followed by Dunn’s post hoc test according to the data distribution.
During necropsy, heart was rapidly excised, washed in cold saline and LV free wall was snap frozen in liquid nitrogen. After homogenization in liquid nitrogen, aliquots (aprox. 50 mg) were stored at -80 °C and used for PCR analysis of molecular markers of cardiotoxicity. Total RNA was isolated from rabbit LV myocardium using TRIzol reagent (Sigma-Aldrich). After reverse transcription using a High-Capacity cDNA Reverse Transcription Kit, qPCR was performed with TaqMan Fast Universal PCR Master Mix on QuantStudio 7 Flex Real-Time PCR System (all from Applied Biosystems, Foster City). […] Mean threshold cycle values were transformed into relative expression using the Pfaffl method. Commercial gene expression assays were obtained from Applied Biosystems and Generi Biotech (Hradec Králové, Czech Republic). The expression data were normalized by Hprt1 expression. Statistical significance was determined using one way ANOVA followed by the Holm–Sidak post hoc test or Kruskal–Wallis ANOVA on ranks followed by Dunn’s post hoc test according to the data distribution.

[6] = target: T1, TOP2B C88Y (Homo sapiens, UniProt Q02880, C93Y); test: ATPase activity of TOP2B C88Y mutant; format: biochemical
T1 construct: Using recombinant full-length human TOP2A and TOP2B enzymes; YFP (N, cleaved yes); made in house; host or cells: HEK293F
T1 sequence (Q02880 1-1621 isoform Q02880-2 C88Y): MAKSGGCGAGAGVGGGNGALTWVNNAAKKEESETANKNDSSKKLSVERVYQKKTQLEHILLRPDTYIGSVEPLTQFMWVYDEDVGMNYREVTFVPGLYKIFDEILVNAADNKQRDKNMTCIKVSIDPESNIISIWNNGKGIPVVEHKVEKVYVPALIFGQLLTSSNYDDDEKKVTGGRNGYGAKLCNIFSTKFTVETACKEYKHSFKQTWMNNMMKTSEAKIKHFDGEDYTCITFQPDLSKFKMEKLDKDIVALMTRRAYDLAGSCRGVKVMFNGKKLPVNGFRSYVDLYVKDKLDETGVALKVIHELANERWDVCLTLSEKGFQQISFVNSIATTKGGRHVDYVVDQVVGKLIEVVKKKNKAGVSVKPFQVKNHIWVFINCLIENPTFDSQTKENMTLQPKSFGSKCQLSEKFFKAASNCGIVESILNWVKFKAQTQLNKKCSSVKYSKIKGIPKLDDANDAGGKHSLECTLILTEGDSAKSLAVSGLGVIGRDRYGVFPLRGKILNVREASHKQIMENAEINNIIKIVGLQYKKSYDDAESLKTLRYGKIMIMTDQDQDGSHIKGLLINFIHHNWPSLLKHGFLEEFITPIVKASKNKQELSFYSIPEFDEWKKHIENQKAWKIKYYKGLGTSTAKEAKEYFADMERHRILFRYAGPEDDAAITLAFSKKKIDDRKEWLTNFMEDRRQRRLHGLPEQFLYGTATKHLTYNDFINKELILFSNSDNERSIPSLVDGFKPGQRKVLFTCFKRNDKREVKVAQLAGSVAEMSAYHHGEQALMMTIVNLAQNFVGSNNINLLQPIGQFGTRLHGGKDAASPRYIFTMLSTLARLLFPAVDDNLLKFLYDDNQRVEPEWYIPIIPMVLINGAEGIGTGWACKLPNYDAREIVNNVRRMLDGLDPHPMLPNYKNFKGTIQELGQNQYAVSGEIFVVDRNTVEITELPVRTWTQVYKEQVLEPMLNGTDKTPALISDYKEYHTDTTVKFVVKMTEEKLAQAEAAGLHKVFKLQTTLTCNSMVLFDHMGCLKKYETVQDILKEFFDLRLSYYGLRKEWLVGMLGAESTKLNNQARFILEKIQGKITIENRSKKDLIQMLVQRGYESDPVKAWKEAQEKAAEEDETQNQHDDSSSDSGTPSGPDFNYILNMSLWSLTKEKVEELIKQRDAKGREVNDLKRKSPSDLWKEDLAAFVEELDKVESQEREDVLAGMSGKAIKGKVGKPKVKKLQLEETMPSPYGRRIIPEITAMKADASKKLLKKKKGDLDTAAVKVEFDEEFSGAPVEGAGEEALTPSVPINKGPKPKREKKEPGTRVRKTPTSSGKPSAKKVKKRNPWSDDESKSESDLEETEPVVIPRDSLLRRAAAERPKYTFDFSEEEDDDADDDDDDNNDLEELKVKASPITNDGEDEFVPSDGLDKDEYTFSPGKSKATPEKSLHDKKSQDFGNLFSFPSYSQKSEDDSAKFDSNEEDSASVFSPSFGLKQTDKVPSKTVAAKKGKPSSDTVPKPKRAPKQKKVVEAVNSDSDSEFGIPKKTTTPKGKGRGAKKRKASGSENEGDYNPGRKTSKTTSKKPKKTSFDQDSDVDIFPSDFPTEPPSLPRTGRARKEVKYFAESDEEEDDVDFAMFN
Procedure: The human topoisomerase II decatenation assay was performed to determine the inhibitory effects of BNS-22 and new compounds as previously described with minor modifications[14],[36]. The assay was performed using recombinant human TOP2A or TOP2B generated using the HEK293F YFP-tag expression system as previously described[18],[19],[36]. Briefly, plasmids encoding YFP-TOP2A or YFP-TOP2B were transfected into HEK293F cells (Catalog number 11625019, Thermofisher Scientific), and TOP2 proteins were isolated from cell lysates by anti-YFP nanobody affinity chromatography. After elution by TEV protease cleavage, TOP2 proteins were FPLC purified by sequential cation exchange and size exclusion chromatography. Plasmid encoding TOP2B C88Y was generated by round-the-horn PCR mutagenesis and the sequence was verified by full-plasmid sequencing. Purified TOP2 proteins were stored in a storage buffer containing 20 mM HEPES pH 7.5, 500 mM NaCl, 0.5 mM TCEP, 25% (v/v) glycerol at -80 °C. For decatenation assays, purified TOP2 proteins were incubated with 200 ng kDNA (Topogen) in a reaction buffer containing 50 mM Tris−HCl (pH 8), 100 mM NaCl, 10 mM MgCl2, 0.5 mM DTT, 2 mM ATP, 0.1 mM tris(2-carboxyethyl)phosphine (TCEP), 5% (v/v) glycerol, 70 μg/mL bovine serum albumin, and 1/10 volume of each compound diluted in 10% DMSO (final DMSO concentration 1%) for 40 min at 37 °C. The reaction was then stopped by the addition of gel loading buffer (0.5 volumes of 60% (w/v) glycerol, 60 mM EDTA, 20 mM Tris−HCl (pH 7.5), 0.5 mg/mL bromophenol blue) and the samples were placed on ice. Reaction products were resolved by agarose gel electrophoresis in TBE buffer containing GelRed stain (Biotium). Gels were visualized using an iBright CL1000 (Thermofisher Scientific). Band intensities were quantified using FIJI, and the signal of the treated samples was normalized to the value of the control (untreated sample; 100%) present on the same gel. The normalized signal of three independent measurements was then expressed as mean ± SD. Each presented data point was obtained from distinct sample. Normalized values were plotted as a function of inhibitor concentration to determine IC50 values by nonlinear regression with variable slope using Prism 9 (GraphPad).
Topoisomerase proteins were diluted to 500 nM in storage buffer containing 20 mM HEPES pH 7.5, 500 mM NaCl, 0.5 mM TCEP, 25% glycerol, and 0.2 mg/mL BSA prior to use. A coupled assay was used to measure TOP2-catalyzed ATP hydrolysis in vitro[37] in Costar 96-well plates (Corning Incorporated). […] Reaction plates were pre-warmed to 30 °C for 5 min and ATP was added last to initiate the reaction. The reaction plate was placed in a CLARIOstarPlus plate reader (BMG Labtech) to measure NADH fluorescence at 30 °C every 30 s over 120 cycles using a 340-60 excitation filter and a 480-100 emission filter. Background fluorescence signals calculated from wells containing no ATP were subtracted from each measurement. The slope of NADH fluorescence decay in each well was calculated using the MARS software (BMG Labtech) and reaction wells that lacked topoisomerase inhibitor to account for photobleaching of NADH fluorescence served as background subtraction. Each presented data point was obtained from distinct sample. Values were normalized to untreated controls and plotted as a function of inhibitor concentration to determine IC50 values using Prism 9 (GraphPad).

[7] = system: NVCM; test: Live-cell microscopy and mitochondrial membrane staining of NVCM; format: cell-based, rat; conditions: 10 µM + DAU 1.2 µM
Procedure: Micrographs were obtained using an Eclipse TS100 inverted epifluorescence microscope (Nikon Corporation, Tokyo, Japan) and NIS-Elements AR 2.20 software (Laboratory Imaging s.r.o., Prague, Czech Republic). After treatment and incubation time corresponding to cytotoxicity/protection experiments (3 h preincubation with topobexin (9) [10 µM], 3 h co-incubation with topobexin (9) [10 µM] + DAU [1.2 µM], 45 h drug-free medium) NVCM were stained with 0.5 μM JC-1 probe (Molecular Probes/Thermo Fisher Scientific, USA) for 30 min at 37 °C or combination of 0.2 μM MitoTracker Red CMXRos (Molecular Probes/Thermo Fisher Scientific, USA) for 30 min and Hoechst 33342 for 10 min at 37 °C and then washed with a buffer (1.2 mM MgSO4 · 7H2O, 116 mM NaCl, 5.3 mM KCl, 1.13 mM NaH2PO4 · H2O, 20 mM HEPES).

[8] = Topobexin alone, individual animals
[9] = Topobexin+DAU, individual animals

Compound: COc1cccc2c1C(=O)c1c(O)c3c(c(O)c1C2=O)C[C@@](O)(C(C)=O)C[C@@H]3O[C@H]1C[C@H](N)[C@H](O)[C@H](C)O1 [DAU, daunorubicin, reference compound]
- Csp3/7 activity, mean ([1]; DAU 1.2 μM alone): 3.236 fold change
- Csp3/7 activity ([1]; DAU 1.2 μM alone): 2.392 fold change and 2.445 fold change and 4.746 fold change and 2.53 fold change and 4.167 fold change and 3.136 fold change
- Csp8 activity, mean ([2]; DAU 1.2 μM alone): 2.2056 fold change
- Csp8 activity ([2]; DAU 1.2 μM alone): 1.777 fold change and 1.7129 fold change and 3.182 fold change and 1.952 fold change and 2.3428 fold change and 2.2669 fold change
- Csp9 activity, mean ([3]; DAU 1.2 μM alone): 2.579 fold change
- Csp9 activity ([3]; DAU 1.2 μM alone): 1.742 fold change and 1.782 fold change and 3.523 fold change and 1.858 fold change and 4.0027 fold change and 2.565 fold change
- IC50 [4]: 15 nM
- premature death ([5]; DAU 3 mg/kg weekly, 10 weeks): one premature death
- Body weight gain ([5]; DAU alone, individual animals): 111.6 and 102.0 and 134.7 and 116.1 and 99.5 and 98.2 and 106.3 and 117.5 and 112.5 and 97.6 and 92.2
- Brain natriuretic peptide mRNA, LV myocardium ([5]; DAU alone, individual animals): 3.43 and 7.71 and 11.23 and 1.53 and 3.70 and 14.27 and 5.99 and 15.03 and 2.12 and 2.78
- Collagen I alpha 1 mRNA ([5]; DAU alone, individual animals): 1.89 and 3.79 and 5.05 and 1.80 and 2.15 and 7.04 and 4.33 and 8.95 and 1.98 and 2.03
- Fibronectin 1 mRNA ([5]; DAU alone, individual animals): 2.75 and 11.42 and 16.69 and 2.86 and 6.76 and 33.96 and 11.80 and 25.41 and 3.99 and 2.01
- LV FS (LMV) ([5]; DAU alone, individual animals): 35.5 and 28.3 and 21.8 and 37.5 and 22.5 and 33.0 and 26.0 and 35.8
- LV dP/dtmax ([5]; DAU alone, individual animals): 4037 and 6946 and 6956 and 5174 and 3773 and 6731 and 5382 and 6442
- Δ LV FS (LMV) ([5]; DAU alone, individual animals): -7.5 and -6.8 and -15.3 and -22.3 and -4.5 and -6.0 and -18.5 and -9.0 and -16.5 and -17.5 and -9.2

Compound: CCCc1cc(=O)oc2c(C(=O)N3CCCc4ccccc43)c(OCCN3CCN(C)CC3)ccc12 [topobexin (9)]
- IC50 [6]: 1880 nM
- remaining activity at 0.0625 µM ([6]; 0.0625 μM, independent replicates, normalized to 0 drug): 98.2%
- remaining activity at 0.125 µM ([6]; 0.125 μM, independent replicates, normalized to 0 drug): 97.9%
- remaining activity at 0.25 µM ([6]; 0.25 μM, independent replicates, normalized to 0 drug): 95.9%
- remaining activity at 0.5 µM ([6]; 0.5 μM, independent replicates, normalized to 0 drug): 84.7%
- remaining activity at 1 µM ([6]; 1 μM, independent replicates, normalized to 0 drug): 69.3%
- remaining activity at 2 µM ([6]; 2 μM, independent replicates, normalized to 0 drug): 43.5%
- remaining activity at 4 µM ([6]; 4 μM, independent replicates, normalized to 0 drug): 18.5%
- remaining activity at 8 µM ([6]; 8 μM, independent replicates, normalized to 0 drug): 6.37%
- effect of C88Y mutation in TOP2B on inhibition ([6]; vs TOP2B WT): conferred significant resistance to inhibition
- Csp3/7 activity, mean ([1]; Cmpd 9 10 μM + DAU 1.2 μM): 1.924 fold change
- Csp3/7 activity ([1]; Cmpd 9 10 μM + DAU 1.2 μM): 1.455 fold change and 1.638 fold change and 2.77 fold change and 1.323 fold change and 2.6893 fold change and 1.665 fold change
- Csp3/7 activity, mean ([1]; Cmpd 9 10 μM alone): 0.9751 fold change
- Csp3/7 activity ([1]; Cmpd 9 10 μM alone): 1.249 fold change and 1.002 fold change and 1.008 fold change and 0.6241 fold change and 0.959 fold change and 1.009 fold change
- DAU-induced apoptotic signaling by caspases 3/7, 8, and 9 ([1]; NVCM): reduces DAU-induced apoptotic signaling
- Csp8 activity, mean ([2]; Cmpd 9 10 μM + DAU 1.2 μM): 1.776 fold change
- Csp8 activity ([2]; Cmpd 9 10 μM + DAU 1.2 μM): 1.323 fold change and 1.259 fold change and 2.008 fold change and 1.4395 fold change and 2.674 fold change and 1.95 fold change
- Csp8 activity, mean ([2]; Cmpd 9 10 μM alone): 1.035 fold change
- Csp8 activity ([2]; Cmpd 9 10 μM alone): 0.9315 fold change and 1.0306 fold change and 0.962 fold change and 0.8268 fold change and 1.054 fold change and 1.403 fold change
- Csp9 activity, mean ([3]; Cmpd 9 10 μM + DAU 1.2 μM): 1.834 fold change
- Csp9 activity ([3]; Cmpd 9 10 μM + DAU 1.2 μM): 1.395 fold change and 1.389 fold change and 2.498 fold change and 1.26 fold change and 2.708 fold change and 1.753 fold change
- Csp9 activity, mean ([3]; Cmpd 9 10 μM alone): 0.9606 fold change
- Csp9 activity ([3]; Cmpd 9 10 μM alone): 0.8436 fold change and 1.03 fold change and 0.994 fold change and 0.6408 fold change and 0.974 fold change and 1.282 fold change
- DAU-induced changes in cardiomyocyte morphology and mitochondria [7]: reduced the distinct changes in cardiomyocyte morphology induced by DAU
- Body weight gain [5, 8]: 141.3 and 136.4 and 124.5 and 123.7 and 134.0 and 143.6 and 132.0
- Brain natriuretic peptide mRNA, LV myocardium [5, 8]: 3.72 and 0.42 and 0.55 and 0.81 and 0.90 and 0.28 and 2.33
- Collagen I alpha 1 mRNA [5, 8]: 1.54 and 1.27 and 0.81 and 0.88 and 1.14 and 1.41 and 1.19
- Fibronectin 1 mRNA [5, 8]: 1.41 and 1.30 and 1.55 and 1.58 and 1.78
- LV FS (LMV) [5, 8]: 42.0 and 40.5 and 42.5 and 43.5 and 39.0 and 43.0
- LV dP/dtmax [5, 8]: 7750 and 7165 and 9815 and 8309 and 8311 and 8034 and 7362
- Δ LV FS (LMV) [5, 8]: 1.0 and -1.5 and 2.0 and -1.0 and -2.5
- Body weight gain [5, 9]: 104.9 and 134.7 and 121.0 and 128.3 and 113.2 and 106.8 and 114.9 and 101.0 and 104.7
- Brain natriuretic peptide mRNA, LV myocardium [5, 9]: 1.55 and 3.15 and 0.69 and 1.65 and 1.04 and 0.65 and 5.19 and 1.00 and 2.01 and 1.22 and 0.48
- Collagen I alpha 1 mRNA [5, 9]: 0.77 and 1.31 and 1.34 and 2.10 and 1.65 and 1.81 and 2.59 and 0.95 and 1.66 and 0.86 and 1.09
- Fibronectin 1 mRNA [5, 9]: 0.87 and 1.85 and 1.50 and 1.99 and 1.56 and 2.18 and 3.87 and 1.34 and 1.94 and 1.25 and 1.18
- LV FS (LMV) [5, 9]: 42.0 and 43.5 and 39.3 and 42.3 and 44.0 and 42.8 and 40.0 and 41.0 and 43.8
- LV dP/dtmax [5, 9]: 8562 and 8147 and 6788 and 7928 and 8340 and 7337 and 7402 and 8558 and 8112 and 8066 and 7973
- Δ LV FS (LMV) [5, 9]: -1.5 and 3.0 and -2.3 and 0.5 and 4.0 and -0.3 and -4.0 and -1.0 and 0.0 and 2.3 and 2.0
- tolerability ([5]; alone or with DAU, weekly for 10 weeks): well tolerated
- Body weight gain ([5]; topobexin + DAU): matched the DAU group
- LV expression of BNP ([5]; topobexin + DAU): prevented by co-administration of topobexin (9)
- LV systolic function (echocardiography) ([5]; topobexin + DAU): effectively prevented the DAU-induced decrease in LV systolic function
- cardiomyocyte damage, plasma cTnT ([5]; topobexin + DAU): effectively prevented by topobexin (9)
- survival ([5]; topobexin + DAU): survived until the scheduled end of the experiment
- Body weight gain ([5]; topobexin alone): did not differ from the control group
